Experimental data: publication PMC5584945, “Evaluation of robenidine analog NCL195 as a novel broad-spectrum antibacterial agent” (PLoS ONE, 2017)
Read-outs that look alike come from different tables or passages of the source.

Legend:
Hep G2 = test: Real-time cell viability, RealTime-Glo MT; assay type: cell-based, human; conditions: 2 or 8 μg/ml, up to 20 h post-treatment
[1] = Microsomal metabolic stability; assay type: in vitro ADME; conditions: pH 7.4; for microsomal CLint at 0.4 μg/ml / half-life at 0.4 μg/ml: microsomes; for half-life at 0.4 μg/ml: 0.4 μg/ml compound, 0.4 mg/ml protein, NADPH
Protocol: The metabolic stability assay was performed by incubating 0.4 μg/ml of each test compound with human and mouse liver microsomes (Xenotech, Lot# 1210057 and 1310211, respectively) suspended in 0.1 M pH 7.4 phosphate buffer at 37°C and 0.4 mg/ml protein concentration. The metabolic reaction was initiated by the addition of an NADPH-regenerating system (i.e. NADPH is the cofactor required for CYP450-mediated metabolism) and quenched at various time points over a 60 min incubation period by the addition of acetonitrile containing diazepam as internal standard. Control samples (containing no NADPH) were included (and quenched at 2, 30 and 60 min) to monitor for potential degradation in the absence of cofactor. Test compound concentration vs time data were fitted to an exponential decay function to determine the first-order rate constant for substrate depletion. This was used to calculate a degradation half-life (T1/2), in vitro intrinsic clearance (CLINT), microsome-predicted blood clearance (CLblood) and a microsome-predicted hepatic extraction ratio (EH) according to the in vitro half-life method of Obach[53].

S. aureus ATCC49775 = test: Membrane potential, DiOC2(3) fluorescence; assay type: cell-based, Staphylococcus aureus; conditions: 16 μg/ml, pre-incubated 5 min; versus untreated and ampicillin
Protocol: To further examine the mechanism underlying the perturbation of the cell membrane of S. pneumoniae or S. aureus by the NCL compounds, the membrane potential of the cells was measured by fluorescence spectrometry using (DiOC2(3), essentially as described previously. Briefly, […] cells from an overnight HBA plate were grown in Todd-Hewitt broth supplemented with 1% yeast extract (THY) at 37°C, 5% CO2 until A600 nm = 0.5. […] The cuvette was then placed in a LS 55 Fluorescence Spectrometer (PerkinElmer) set at Ex. 488 nm/Em. 620 nm, with excitation and emission slit widths at 5 nm and 7 nm, respectively). […] All assays were performed at least twice.

[2] = tested on: panel of mammalian cell lines (Caco-2, HEL 299, Hep G2, MDBK, MCF7); test: In vitro cytotoxicity, WST-1, all cell lines tested; assay type: cell-based; conditions: lower bound over all the cell lines tested
Text: (§1) In order to ensure minimal off target mammalian cell cytotoxicity, we assayed NCL812, NCL195 and NCL219 for in vitro cytotoxicity using a panel of adherent mammalian cell lines: Caco-2 (human colorectal adenocarcinoma cell line), HEL 299 (non-cancerous human lung fibroblast cell line), Hep G2 (human hepatocellular carcinoma cell line), MDBK (normal bovine kidney cell line) and MCF7 (human mammary gland adenocarcinoma cell line). Cell lines were maintained in Dulbecco’s Modified Eagle’s Medium (DMEM; […] After 24 h incubation, media was removed, washed once with medium without antibiotics and fresh medium supplemented with 10% (vol/vol) FBS was added. […] Following exposure for 24 h, WST-1 reagent was added to each well at a final concentration of 10%. […] The IC50 value for each compound against each cell line was determined via non-linear regression (three parameters) using GraphPad Prism v6 software. The robustness of assays was confirmed with selected cell lines (Hep G2 and MDBK) seeded onto a 96–well Microwell Nunclon Delta Surface plate (Thermo Scientific Nunc; Cat No: 136101) at 5 × 10^4 cells per well.

MDBK = test: In vitro cytotoxicity, WST-1; assay type: cell-based, bovine; conditions: Bos taurus, 24 h exposure, read-out: IC50 values ± SEM
Text: as §1

human red blood cells = test: Haemolysis assay; assay type: cell-based; conditions: 1 h, 37°C; highest concentration used 128 μg/ml
Protocol: This was performed using fresh donor human red blood cells (RBCs), essentially as described previously. Fresh RBCs were washed in PBS three times at 500 × g for 5 min, and then resuspended 1% (w/v) in PBS. […] Thereafter, 198 μL of the 1% RBC solution was added into each well, and the mixture incubated for 1 h at 37°C, with shaking at 100 rpm. Quadruplicate wells containing either 1% Triton X100, or PBS only, served as controls. After incubation, the trays were centrifuged at 1,000 × g for 3 min and 100 μl of supernatant from each well transferred into a new 96-well tray. Absorbance was measured at A450 nm on a Multiskan Ascent 354 Spectrophotometer (Labsystems) and plotted against each dilution. Haemolytic titer was determined as the reciprocal of the dilution at which 50% of erythrocytes were lysed at A450 nm. The experiment was performed twice.

S. aureus = test: MIC, broth micro-dilution (CLSI); assay type: cell-based, Staphylococcus aureus; conditions: for MIC / MIC50 / MIC90: Staphylococcus aureus
[3] = tested on: Enterococcus faecalis ATCC 29212; test: MIC, broth micro-dilution (CLSI), control strain; assay type: cell-based
Protocol: MICs for NCL812 and its analogs (serial two-fold dilutions commencing at 128 μg/ml) were determined (in duplicate) in round bottom 96-well microtitre trays (Sarstedt 82.1582.001), using the broth micro-dilution method recommended by the Clinical and Laboratory Standards Institute (CLSI). […] MIC50, MIC90 and MIC range for NCL812, NCL195 and NCL219 were calculated against each S. pneumoniae, S. aureus or VRE isolate. To assess the potential activity of NCL195 against Gram-negative bacteria, MICs against Acinetobacter spp, E. coli, K. pneumoniae, P. aeruginosa, Proteus spp and Neisseria meningitidis were performed in the presence or absence of 0.08 mM-20 mM EDTA in a standard checkerboard assay.

[4] = S2 Table isolates, absence of FBS

SMILES: Cl.N=C(NN=Cc1ccc(Cl)cc1)NN=Cc1ccc(Cl)cc1 [NCL812, 2,2'-bis[(4-chlorophenyl)methylene] carbonimidic dihydrazide hydrochloride]
- Effect on cell viability (real-time) (Hep G2): affected viability at 8 μg/ml
- Predicted CLblood ([1]; human, 0.4 μg/ml): <5 mL/min/kg
- microsomal CLint at 0.4 μg/ml ([1]; human): < 7 µL/min/mg
- half-life at 0.4 μg/ml ([1]; human): > 4.12 h
- half-life at 0.4 μg/ml ([1]; mouse): > 4.12 h
- Predicted CLblood ([1]; mouse, 0.4 μg/ml): <16 mL/min/kg
- Predicted EH ([1]; mouse, 0.4 μg/ml): <0.13
- microsomal CLint at 0.4 μg/ml ([1]; mouse): < 7 µL/min/mg
- Effect on generated membrane potential (S. aureus ATCC49775): large reduction in the magnitude of the generated membrane potential
- IC50 [2]: > 4 µg/mL
- IC50 (MDBK): 5.9 ± 0.1 µg/mL
- 50% haemolysis titre (HC50) (human red blood cells): 24 µg/mL
- Fold increase of MIC range in the presence of 10% FBS (S. aureus; 10% FBS versus no FBS): 4-8 fold
- MIC range (S. aureus; 23 isolates): 2 to 8 µg/mL
- MIC range (S. aureus; S2 Table isolates, 10% FBS): 32 µg/mL
- MIC range (S. aureus; [4]): 2 to 8 µg/mL
- MIC (S. aureus; ATCC 12600 / MSSA, ATCC12600 [Xen29] (MSSA), 10% FBS): 32 µg/mL
- MIC (S. aureus; ATCC 12600 / MSSA, ATCC12600 [Xen29] (MSSA), absence of FBS): 4 µg/mL
- MIC (S. aureus; ATCC 29213 / MSSA, ATCC29213 MSSA (ST5), 10% FBS, read-out: MIC): 32 µg/mL
- MIC (S. aureus; ATCC 29213 / MSSA, ATCC29213 MSSA (ST5), absence of FBS, read-out: MIC): 4 µg/mL
- MIC (S. aureus; ATCC 49775 / MSSA, ATCC 49775 (MSSA), 10% FBS, read-out: MIC): 32 µg/mL
- MIC (S. aureus; ATCC 49775 / MSSA, ATCC 49775 (MSSA), absence of FBS, read-out: MIC): 2 µg/mL
- MIC (S. aureus; IRISH 1 – HA-EMRSA (ST8), 10% FBS, read-out: MIC): 32 µg/mL
- MIC (S. aureus; IRISH 1 – HA-EMRSA (ST8), absence of FBS, read-out: MIC): 2 µg/mL
- MIC (S. aureus; IRISH 2 – HA-EMRSA (ST8), 10% FBS, read-out: MIC): 32 µg/mL
- MIC (S. aureus; IRISH 2 – HA-EMRSA (ST8), absence of FBS, read-out: MIC): 2 µg/mL
- MIC (S. aureus; MRSA / USA300, USA 300 - MRSA (ST8), 10% FBS, read-out: MIC): 32 µg/mL
- MIC (S. aureus; MRSA / USA300, USA 300 - MRSA (ST8), absence of FBS, read-out: MIC): 2 µg/mL
- MIC (S. aureus; MRSA, AUS2-MRSA (ST239), 10% FBS, read-out: MIC): 32 µg/mL
- MIC (S. aureus; MRSA, AUS2-MRSA (ST239), absence of FBS, read-out: MIC): 2 µg/mL
- MIC (S. aureus; MRSA, AUS3-MRSA (ST239), 10% FBS, read-out: MIC): 32 µg/mL
- MIC (S. aureus; MRSA, AUS3-MRSA (ST239), absence of FBS, read-out: MIC): 2 µg/mL
- MIC (S. aureus; MRSA, BENGAL BAY PVL+ – CA-MRSA (ST772), 10% FBS, read-out: MIC): 32 µg/mL
- MIC (S. aureus; MRSA, BENGAL BAY PVL+ – CA-MRSA (ST772), absence of FBS, read-out: MIC): 2 µg/mL
- MIC (S. aureus; MRSA, Classic–HA-MRSA (ST250), 10% FBS, read-out: MIC): 32 µg/mL
- MIC (S. aureus; MRSA, Classic–HA-MRSA (ST250), absence of FBS, read-out: MIC): 2 µg/mL
- MIC (S. aureus; MRSA, NY JAPAN – HA MRSA (ST5), 10% FBS, read-out: MIC): 32 µg/mL
- MIC (S. aureus; MRSA, NY JAPAN – HA MRSA (ST5), absence of FBS, read-out: MIC): 2 µg/mL
- MIC (S. aureus; MRSA, QLD PVL+ –CA-MRSA (ST93), 10% FBS, read-out: MIC): 32 µg/mL
- MIC (S. aureus; MRSA, QLD PVL+ –CA-MRSA (ST93), absence of FBS, read-out: MIC): 2 µg/mL
- MIC (S. aureus; MRSA, ST398–CA-MRSA-V (ST398), 10% FBS, read-out: MIC): 32 µg/mL
- MIC (S. aureus; MRSA, ST398–CA-MRSA-V (ST398), absence of FBS, read-out: MIC): 2 µg/mL
- MIC (S. aureus; MRSA, WA2–CA-MRSA (ST78), absence of FBS): 4 µg/mL
- MIC (S. aureus; MRSA, WA84–CA-MRSA (ST45), absence of FBS): 4 µg/mL
- MIC (S. aureus; MRSA, WSPP – PVL neg CA MRSA (ST30), absence of FBS, read-out: MIC): 2 µg/mL
- MIC50 (S. aureus; S2 Table isolates, 10% FBS): 32 µg/mL
- MIC90 (S. aureus; S2 Table isolates, 10% FBS): 32 µg/mL
- MIC50 (S. aureus; [4]): 2 µg/mL
- MIC90 (S. aureus; [4]): 4 µg/mL
- MIC (S. aureus; TAIWAN PVL+ – CA-cMRSA (ST59), 10% FBS, read-out: MIC): 32 µg/mL
- MIC (S. aureus; TAIWAN PVL+ – CA-cMRSA (ST59), absence of FBS, read-out: MIC): 2 µg/mL
- MIC (S. aureus; UK 15 PVL+ – HA-EMRSA (ST22), 10% FBS, read-out: MIC): 32 µg/mL
- MIC (S. aureus; UK 15 PVL+ – HA-EMRSA (ST22), absence of FBS, read-out: MIC): 4 µg/mL
- MIC (S. aureus; UK 15 – HA-EMRSA (ST22), 10% FBS, read-out: MIC): 32 µg/mL
- MIC (S. aureus; UK 15 – HA-EMRSA (ST22), absence of FBS, read-out: MIC): 4 µg/mL
- MIC (S. aureus; UK 16 – HA- EMRSA (ST36), 10% FBS, read-out: MIC): 32 µg/mL
- MIC (S. aureus; UK 16 – HA- EMRSA (ST36), absence of FBS, read-out: MIC): 4 µg/mL
- MIC (S. aureus; UK 17 – HA-EMRSA (ST247), 10% FBS, read-out: MIC): 32 µg/mL
- MIC (S. aureus; UK 17 – HA-EMRSA (ST247), absence of FBS, read-out: MIC): 2 µg/mL
- MIC ([3]; ATCC29212, 10% FBS): 32 µg/mL
- MIC ([3]; ATCC29212, absence of FBS): 4 µg/mL
